Where “and” joins values, the source holds several entries; their conditions need not be identical. Identical values can stand only once.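 Cultured in 96-well plates, cells were exposed to test compound for 48 hours across five concentrations. Abbreviation: GI50, concentration required for 50% inhibition of growth. At the TGI there is no net growth.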

One assay concerns MOLT-4 leukemia. As to the kind of experiment: NCI-60 cell line screen, 48 h.
In the case of `O=C1C=C(O)c2[nH]c(=O)ccc2C1=O`, the TGI is over 100 µM.
Still for that read-out and setting: under `O=c1ncccn1C1C=C(CO)C(O)C1O` (stereo unspecified) stands over 50 µM.
On the same count and under the same terms, under `CCN(CC)CC(=O)N1CCc2c([nH]c3ccccc23)C1c1cccnc1` (stereo unspecified) stands over 100 µM; under `O=c1c(Cl)c(Cl)cnn1CCc1ccncc1`, over 100 µM.
Turning to `CCCCCCCCCCCCCC(=O)OCC1OC(=O)CC1O` (stereo unspecified), the TGI was over 100 µM.
Still for that read-out and setting: for `COC1OC(C)C(OCc2ccccc2)C(OS(=O)(=O)c2ccc(C)cc2)C1OS(=O)(=O)c1ccc(C)cc1` (stereo unspecified) the value was over 100 µM; for `O=C1C2=C(c3ccccc31)C(c1ccccc1Cl)N1C(=O)CCSC1=N2` (stereo unspecified), over 100 µM.

For another assay, the system named is A498 renal. Put plainly: NCI-60 cell line screen, 48 h.
The molecule `CC1(c2ccccc2)CC(c2ccccc2)=NO1` (stereo unspecified) yielded a TGI of over 100 µM.
Same read-out and setting: for `COc1cccc(/C=C2\CCC(C)(CN(C)C)C2=O)c1` (stereo unspecified) the value was over 100 µM; for `Cl[Si]1(Cl)Oc2ccccc2O[Si](Cl)(Cl)Oc2ccccc2O1`, over 100 µM; for `C[n+]1c2ccccc2cc2c(CNC(CCCN=C(N)N)C(=O)O)cccc21` (stereo unspecified), 8.7 µM.
In the case of `CC(=O)[O-].CC(=O)[O-].CC(=O)[O-].CC(=O)[O-].[Mo+2].[Mo+2]`, the GI50 was over 100 µM and the TGI was over 100 µM.
Molecule `C=CCC1[C@@H](C(C)(C)C(C(C)=O)C(=O)C(=O)OC)OC(C(C)(C)C)N1C(=O)OC` (stereo partly specified) showed a TGI of over 100 µM.
On the same count and under the same terms, under `CC1(C)OC2COC3(CNO)OC(C)(C)OC3C2O1` (stereo unspecified) stands over 100 µM; under `CCOC(=O)C(=O)Nc1ccccc1C(F)(F)F`, over 100 µM; under `COc1ccc(Nc2nc3ccccc3nc2-c2cccs2)cc1`, over 100 µM.
On the same count and under the same terms, under `CCOC(=O)/C(=C/c1cccc(OC)c1)N(CC)CC` stands over 100 µM.
In the case of `COc1c(Br)cc(Br)c(OC)c1-c1[nH]c(Br)c(Br)c1Br`, the TGI was found to be 26 µM.
Still for that read-out and setting: for `CCOC(=O)c1ccc(N[C@@H]2c3cc4c(cc3C(C3=CC(=O)C(=O)C(OC)=C3)[C@H]3C(=O)OCC32)OCO4)cc1` (stereo partly specified) the value was 13 µM.
On the same count and under the same terms, under `CC(CC(=O)Nc1ccc(NC(=O)CC(C)N=NC(N)=S)cc1)N=NC(N)=S` (stereo unspecified) stands over 100 µM.
On the same count and under the same terms, under `Cc1c(C(=O)CSc2nc3ccccc3c(=O)n2-c2ccccc2)c(=O)n(-c2ccccc2)n1C` stands over 100 µM; under `COC(=O)/C(C#N)=C1\CCC(C(=O)OC)N1C` (stereo unspecified), over 100 µM.
In the case of `c1ccc(Cn2cnc3ccc(-c4nc(-c5ccc6c(c5)ncn6C5CCCCC5)cn5ccnc45)cc32)cc1`, the GI50 was 1.86 µM and the TGI came to 3.57 µM.
`CSc1c(C)c(C)nn1-c1ccccc1` registered a TGI of over 100 µM.
Still for that read-out and setting: under `CC(=O)OC1COC(n2c(=S)n(-c3ccccc3)c(=O)c3cc(Br)ccc32)C(OC(C)=O)C1OC(C)=O` (stereo unspecified) stands over 100 µM.
Same read-out and setting: for `CC1=C(C(=O)Nc2ccccc2C)C(/C=C/c2ccccc2)C(C(=O)Nc2ccccc2C)=C(C)N1` the value was over 100 µM.
Still for that read-out and setting: for `COc1cc2cnc3c4ccccc4ccc3c2cc1OC` the value was over 100 µM; for `Cc1cn(C2OC(C)(CO)C(O)C2O)c(=O)[nH]c1=O` (stereo unspecified), over 100 µM.
`O=C1C=C(O)c2[nH]c(=O)ccc2C1=O` yielded a TGI of over 100 µM.
`O=c1ncccn1C1C=C(CO)C(O)C1O` (stereo unspecified) showed a TGI of over 50 µM.
Take `CCN(CC)CC(=O)N1CCc2c([nH]c3ccccc23)C1c1cccnc1` (stereo unspecified): the TGI is over 100 µM.
Same read-out and setting: under `O=c1c(Cl)c(Cl)cnn1CCc1ccncc1` stands 44.6 µM; under `CCCCCCCCCCCCCC(=O)OCC1OC(=O)CC1O` (stereo unspecified), over 100 µM; under `O=C1C2=C(c3ccccc31)C(c1ccccc1Cl)N1C(=O)CCSC1=N2` (stereo unspecified), over 100 µM.

In another assay the test system is HCT-15 colon. As to the kind of experiment: NCI-60 cell line screen, 48 h.
In the case of `CC1(c2ccccc2)CC(c2ccccc2)=NO1` (stereo unspecified), the TGI is over 100 µM.
On the same count and under the same terms, under `COc1cccc(/C=C2\CCC(C)(CN(C)C)C2=O)c1` (stereo unspecified) stands over 100 µM; under `Cl[Si]1(Cl)Oc2ccccc2O[Si](Cl)(Cl)Oc2ccccc2O1`, over 100 µM.
For `C[n+]1c2ccccc2cc2c(CNC(CCCN=C(N)N)C(=O)O)cccc21` (stereo unspecified), the GI50 was 0.551 µM; the TGI was 1.44 µM and 2.52 µM.
Turning to `CC(=O)[O-].CC(=O)[O-].CC(=O)[O-].CC(=O)[O-].[Mo+2].[Mo+2]`, the GI50 is over 100 µM and the TGI was over 100 µM.
For `C=CCC1[C@@H](C(C)(C)C(C(C)=O)C(=O)C(=O)OC)OC(C(C)(C)C)N1C(=O)OC` (stereo partly specified), the TGI is over 100 µM.
On the same count and under the same terms, for `CC1(C)OC2COC3(CNO)OC(C)(C)OC3C2O1` (stereo unspecified) the value was over 100 µM; for `CCOC(=O)C(=O)Nc1ccccc1C(F)(F)F`, over 100 µM.
The same measure, in the same setting: for `COc1ccc(Nc2nc3ccccc3nc2-c2cccs2)cc1` the value was over 100 µM.
Same read-out and setting: for `CCOC(=O)/C(=C/c1cccc(OC)c1)N(CC)CC` the value was over 100 µM; for `Cc1nnc(N/N=C(/C(=O)C(C#N)c2ccccc2)C(C#N)c2ccccc2)n1N` (stereo unspecified), over 53 µM; for `COc1c(Br)cc(Br)c(OC)c1-c1[nH]c(Br)c(Br)c1Br`, 20.1 µM.
The molecule `CCOC(=O)c1ccc(N[C@@H]2c3cc4c(cc3C(C3=CC(=O)C(=O)C(OC)=C3)[C@H]3C(=O)OCC32)OCO4)cc1` (stereo partly specified) had a TGI of 7.82 µM.
Same read-out and setting: under `NC(=O)/C=C/C(=O)O` stands over 5000 µM; under `CC(CC(=O)Nc1ccc(NC(=O)CC(C)N=NC(N)=S)cc1)N=NC(N)=S` (stereo unspecified), over 100 µM.
The same measure, in the same setting: under `Cc1c(C(=O)CSc2nc3ccccc3c(=O)n2-c2ccccc2)c(=O)n(-c2ccccc2)n1C` stands over 100 µM; under `COC(=O)/C(C#N)=C1\CCC(C(=O)OC)N1C` (stereo unspecified), over 100 µM.
Same read-out and setting: for `CSc1c(C)c(C)nn1-c1ccccc1` the value was over 100 µM; for `CC(=O)OC1COC(n2c(=S)n(-c3ccccc3)c(=O)c3cc(Br)ccc32)C(OC(C)=O)C1OC(C)=O` (stereo unspecified), over 100 µM.
For `CC1=C(C(=O)Nc2ccccc2C)C(/C=C/c2ccccc2)C(C(=O)Nc2ccccc2C)=C(C)N1`, the TGI is over 100 µM.
Still for that read-out and setting: under `Cc1cn(C2OC(C)(CO)C(O)C2O)c(=O)[nH]c1=O` (stereo unspecified) stands over 100 µM; under `O=C1C=C(O)c2[nH]c(=O)ccc2C1=O`, over 100 µM.
The same measure, in the same setting: under `O=c1ncccn1C1C=C(CO)C(O)C1O` (stereo unspecified) stands over 50 µM; under `CCN(CC)CC(=O)N1CCc2c([nH]c3ccccc23)C1c1cccnc1` (stereo unspecified), over 100 µM; under `O=c1c(Cl)c(Cl)cnn1CCc1ccncc1`, 31.3 µM.
On the same count and under the same terms, under `CCCCCCCCCCCCCC(=O)OCC1OC(=O)CC1O` (stereo unspecified) stands 74.5 µM; under `COC1OC(C)C(OCc2ccccc2)C(OS(=O)(=O)c2ccc(C)cc2)C1OS(=O)(=O)c1ccc(C)cc1` (stereo unspecified), over 100 µM; under `O=C1C2=C(c3ccccc31)C(c1ccccc1Cl)N1C(=O)CCSC1=N2` (stereo unspecified), over 100 µM.
